Reference: the supplement of paper PMC13380429

How the values were obtained:
Settings in all cases: 72 h
Caco-2 [1] = assay: cell viability relative to DMSO; higher = less toxic
Calu-3 [2] = assay: as above
Vero E6 [3] = assay: as above
HepG2 [4] = assay: as above
U2OS [5] = assay: as above
Caco-2 [6] = assay: drug sensitivity score (DSS) for viability; higher = more toxic; extreme values may be limits of the assay
Calu-3 [7] = assay: as above
Vero E6 [8] = assay: as above
HepG2 [9] = assay: as above
U2OS [10] = assay: as above
Caco-2 [11] = assay: relative viability EC50 (midpoint between 100% and the lowest measured viability); higher = less toxic
Calu-3 [12] = assay: as above
Vero E6 [13] = assay: as above
HepG2 [14] = assay: as above
U2OS [15] = assay: as above

SMILES | cell viability (Caco-2 [1]; 1 nM) [%] | cell viability (Caco-2 [1]; 10 nM) [%] | cell viability (Caco-2 [1]; 100 nM) [%] | cell viability (Caco-2 [1]; 1000 nM) [%] | cell viability (Caco-2 [1]; 10000 nM) [%] | cell viability (Calu-3 [2]; 1 nM) [%] | cell viability (Calu-3 [2]; 10 nM) [%] | cell viability (Calu-3 [2]; 100 nM) [%] | cell viability (Calu-3 [2]; 1000 nM) [%] | cell viability (Calu-3 [2]; 10000 nM) [%] | cell viability (Vero E6 [3]; 1 nM) [%] | cell viability (Vero E6 [3]; 10 nM) [%] | cell viability (Vero E6 [3]; 100 nM) [%] | cell viability (Vero E6 [3]; 1000 nM) [%] | cell viability (Vero E6 [3]; 10000 nM) [%] | cell viability (HepG2 [4]; 1 nM) [%] | cell viability (HepG2 [4]; 10 nM) [%] | cell viability (HepG2 [4]; 100 nM) [%] | cell viability (HepG2 [4]; 1000 nM) [%] | cell viability (HepG2 [4]; 10000 nM) [%] | cell viability (U2OS [5]; 1 nM) [%] | cell viability (U2OS [5]; 10 nM) [%] | cell viability (U2OS [5]; 100 nM) [%] | cell viability (U2OS [5]; 1000 nM) [%] | cell viability (U2OS [5]; 10000 nM) [%] | drug sensitivity score (Caco-2 [6]) | drug sensitivity score (Calu-3 [7]) | drug sensitivity score (Vero E6 [8]) | drug sensitivity score (HepG2 [9]) | drug sensitivity score (U2OS [10]) | relative viability EC50 (Caco-2 [11]) [µM] | relative viability EC50 (Calu-3 [12]) [µM] | relative viability EC50 (Vero E6 [13]) [µM] | relative viability EC50 (HepG2 [14]) [µM] | relative viability EC50 (U2OS [15]) [µM]
COc1cc(C(=O)N(CC[C@H]2CCCN2C)C/C(C)=C/c2ccccc2F)cc(OC)c1OC (racemic) | 97.4 | 98.7 | 99.7 | 103 | 93.5 | 93.5 | 108 | 103 | 104 | 94.4 | 102 | 102 | 103 | 99.5 | 99 | 103 | 102 | 95.8 | 104 | 86.6 | 98.6 | 96.8 | 102 | 99.2 | 97.7 | 0 | 0 | 0 | 0.1 | 0 | > 10 | > 10 | > 10 | > 10 | > 10
Cc1ccc(OC[C@@H](O)[C@H](C)NC(C)C)c2c1CCC2 (racemic) [ICI-118,551] | 109 | 103 | 99.2 | 109 | 97.8 | 121 | 98.9 | 109 | 105 | 112 | 98.6 | 94.2 | 101 | 90.5 | 94.1 | 111 | 106 | 100 | 111 | 95.3 | 108 | 98.5 | 113 | 100 | 113 | 0 | 0 | 0 | 0 | 0 | > 10 | > 10 | > 10 | > 10 | > 10
CCCCCCCCCCCCCCCCCCCCCCCCCCCCO [1-octacosanol] | 95.4 | 85.8 | 97 | 91.8 | 95 | 99.1 | 105 | 102 | 95.5 | 96.1 | 95.5 | 98.5 | 96.7 | 95.6 | 104 | 103 | 109 | 97.6 | 116 | 102 | 97.6 | 96.5 | 102 | 96.2 | 96 | 0 | 0 | 0 | 0 | 0 | > 10 | > 10 | > 10 | > 10 | > 10
O=C(O)c1ccc(N2C(=O)/C(=C/c3ccc(-c4ccc([N+](=O)[O-])cc4)o3)C=C2c2ccccc2)cc1 [4E1RCat] | 97.3 | 97.1 | 98.2 | 96.4 | 87.5 | 93.1 | 105 | 95.2 | 87.3 | 100 | 98.1 | 100 | 99 | 98.7 | 99.3 | 104 | 108 | 91.4 | 102 | 88.7 | 98.4 | 98.1 | 102 | 94.7 | 92.5 | 0.2 | 0 | 0 | 0 | 0 | > 10 | > 10 | > 10 | > 10 | > 10
c1ccc(CNc2ncnc3[nH]cnc23)cc1 [6-benzylaminopurine] | 97 | 107 | 90.8 | 109 | 112 | 99.9 | 98.4 | 120 | 97.3 | 112 | 97.1 | 104 | 95.6 | 95 | 104 | 98.3 | 106 | 98.9 | 109 | 98.4 | 106 | 97.9 | 103 | 99.5 | 100 | 0 | 0 | 0 | 0 | 0 | > 10 | > 10 | > 10 | > 10 | > 10
Cc1c(F)cc(C(=O)NC2CC2)cc1-c1c(F)cn2c(C(C)(C)C)nnc2c1F [AL-8697] | 95.4 | 93.5 | 97.7 | 93.4 | 95.3 | 95.7 | 99.2 | 97 | 88.4 | 102 | 95.8 | 100 | 93.9 | 86.3 | 87 | 96.5 | 105 | 90.9 | 105 | 94.7 | 98.9 | 95.9 | 94.1 | 93.1 | 93.7 | 0 | 0 | 1.4 | 0 | 0 | > 10 | > 10 | > 10 | > 10 | > 10
O=C(NC1CCNCC1)c1n[nH]cc1NC(=O)c1c(Cl)cccc1Cl [AT-7519] | 91.4 | 93.2 | 94.2 | 104 | 33.5 | 100 | 99 | 95.9 | 83.9 | 37.5 | 99.6 | 102 | 102 | 99.6 | 96.6 | 111 | 99.4 | 108 | 22.5 | 9.6 | 103 | 97.6 | 100 | 100 | 7 | 3.3 | 5.9 | 0 | 14 | 5.2 | 3.46 | 1.53 | > 10 | 0.509 | 3.19
